How the values were obtained:
[1] = test system: ECHCG; assay: Example I postemergence foliar-applied, greenhouse, direct seeded rice weeds; type: in vivo, Echinochloa crusgalli (L.) Beauv.
Description: Seeds or nutlets of the desired test plant species were planted in a soil matrix prepared by mixing a loam or sandy loam soil (e.g., 28.6 percent silt, 18.8 percent clay, and 52.6 percent sand, with a pH of about 5.8 and an organic matter content of about 1.8 percent) and calcareous grit in an 80 to 20 ratio. The soil matrix was contained in plastic pots with a volume of 1 quart and a surface area of 83.6 square centimeters (cm^2). When required to ensure good germination and healthy plants, a fungicide treatment and/or other chemical or physical treatment was applied. The plants were grown for 8-22 days in a greenhouse with an approximate 14 hr. photoperiod which was maintained at about 29° C. during the day and 26° C. during the night. Nutrients (Peters Excel® 15-5-15 5-Ca 2-Mg and iron chelate) were applied in the irrigation solution as needed and water was added on a regular basis. Supplemental lighting was provided with overhead metal halide 1000-Watt lamps as necessary. The plants were employed for testing when they reached the first through fourth true leaf stage.
(§1) Treatments consisted of the acid or esters of 4-amino-3-chloro-5-fluoro-6-(4-chloro-2-fluoro-3-methoxy-phenyl)pyridine-2-carboxylic acid (Compound A), each formulated as an SC (suspension concentrate), and various herbicidal components alone and in combination.
Other herbicidal components were applied on an acid equivalent (ae) or active ingredient (ai) basis and included acetyl coA carboxylase (ACCase)-inhibiting herbicides (cyclohexanedione and aryloxyphenoxypropionate chemical classes) cyhalofop-butyl formulated as Clincher® SF (285 gr ai/L EC), diclofop-methyl formulated as Hoelon® 3EC, fenoxaprop-p-ethyl+isoxadifen-ethyl formulated as RiceStar® HT (0.58 lb./gal EC), fenoxaprop-p-ethyl+mefenpyr diethyl formulated as Puma® IEC, metamifop formulated as Metamifop EC, haloxyfop-methyl formulated as Gallant Super®, fluazifop-p-butyl formulated as Fusilade® DX, quizalofop-p-ethyl formulated as Assure® II, profoxydim formulated as Aura® 20EC, clethodim applied as Intensity®, sethoxydim formulated as Poast®, and tralkoxydim formulated as Achieve®.
(§2) Treatment requirements were calculated based upon the rates being tested, the concentration of active ingredient or acid equivalent in the formulation, and a 12 mL application volume at a rate of 187 L/ha.
For treatments comprised of formulated compounds, measured amounts of compounds were placed individually in 25 mL glass vials and diluted in a volume of 1.25% (v/v) Agri-Dex® crop oil concentrated to obtain 12× stock solutions. […] Application solutions were prepared by adding an appropriate amount of each stock solution (e.g., 1 mL) and diluted to the appropriate final concentrations with the addition of 10 mL of an aqueous mixture of 1.25% (v/v) crop oil concentrate so that the final spray solutions contained 1.25+/−0.05% (v/v) crop oil concentrate.
All stock solutions and applications solutions were visually inspected for compound compatibility prior to application. Spray solutions were applied to the plant material with an overhead Mandel track sprayer equipped with a 8002E nozzles calibrated to deliver 187 L/ha over an application area of 0.503 m^2 at a spray height of 18 to 20 inches (46 to 50 cm) above average plant canopy height. Control plants were sprayed in the same manner with the solvent blank.
The treated plants and control plants were placed in a greenhouse as described above and watered by sub-irrigation to prevent wash-off of the test compounds. After approximately 3 weeks, the condition of the test plants as compared with that of the untreated plants was determined visually and scored on a scale of 0 to 100 percent where 0 corresponds to no injury or growth inhibition and 100 corresponds to complete kill. […]

[2] = test system: CYPIR; assay: Example V (second) postemergence foliar-applied ternary mixtures, greenhouse, direct seeded rice weeds; type: in vivo, Cyperus iria L.
Protocol: (§3) The treated plants and control plants were placed in a greenhouse as described above and watered by sub-irrigation to prevent wash-off of the test compounds. After approximately 3 weeks, the condition of the test plants as compared with that of the untreated plants was determined visually and scored on a scale of 0 to 100 percent where 0 corresponds to no injury or growth inhibition and 100 corresponds to complete kill.
(§4) Colby's equation was used to determine the herbicidal effects expected from the mixtures (Colby, S. R. 1967. Calculation of the synergistic and antagonistic response of herbicide combinations. Weeds 15:20-22.).
(§5) The following equation was used to calculate the expected activity of mixtures containing three active ingredients, A, B, and C: Expected=A+B+C−((A×B+A×C+B×C)/100)+(A×B×C/10000)

[3] = test system: CYPES; assay: as above; type: in vivo, Cyperus esculentus L.
Protocol: as §3, §4, §5

[4] = test system: AVEFA; assay: Example III postemergence foliar-applied, greenhouse, weeds common to row crops such as corn and soybeans; type: in vivo, Avena fatua L.
Description: Seeds or nutlets of the desired test plant species were planted in a soil matrix prepared by mixing a loam or sandy loam soil (e.g., 28.6 percent silt, 18.8 percent clay, and 52.6 percent sand, with a pH of about 5.8 and an organic matter content of about 1.8 percent) and calcareous grit in an 80 to 20 ratio. The soil matrix was contained in plastic pots with a surface area of 84.6 square centimeters (cm^2) and a volume of 560 cubic centimeters (cm^3). When required to ensure good germination and healthy plants, a fungicide treatment and/or other chemical or physical treatment was applied. The plants were grown for 7-31 days (d) in a greenhouse with an approximate 15 hour (h) photoperiod which was maintained at about 23-29° C. during the day and 22-28° C. during the night. Nutrients (Peters Excel® 15-5-15 5-Ca 2-Mg) and water were added on a regular basis and supplemental lighting was provided with overhead metal halide 1000-Watt lamps as necessary. The plants were employed for testing when they reached the first, second, or third true leaf stage.
as §2, §1
Other herbicidal components were applied on an acid equivalent basis and included acetyl coA carboxylase (ACCase)-inhibiting herbicide (cyclohexanedione and aryloxyphenoxypropionate chemical classes) quizalofop-p-ethyl formulated as Assure® II.
All stock solutions and applications solutions were visually inspected for compound compatibility prior to application. Compound requirements are based upon a 12 mL application volume at a rate of 187 liters per hectare (L/ha). Formulated compounds were applied to the plant material with an overhead Mandel track sprayer equipped with 8002E nozzles calibrated to deliver 187 L/ha over an application area of 0.503 square meters (m^2) at a spray height of 18 to 20 inches (46 to 50 cm) above the average plant canopy height. Control plants were sprayed in the same manner with the solvent blank.
as §3, with “2” for “3”
as §4
The following equation was used to calculate the expected activity of mixtures containing two active ingredients, A and B: Expected=A+B−(A×B/100)

Compound: COc1c(Cl)ccc(-c2nc(C(=O)OCc3ccccc3)c(Cl)c(N)c2F)c1F [Compound A Benzyl Ester, benzyl ester of 4-amino-3-chloro-5-fluoro-6-(4-chloro-2-fluoro-3-methoxy-phenyl)pyridine-2-carboxylic acid]
- Visual Weed Control (%) - 22 DAA ECHCG Obs ([1]; 8 gae/ha): 35%
- Visual Weed Control (%) - 22 DAA ECHCG Obs ([1]; 16 gae/ha): 65%
- Visual Weed Control (%) - 22 DAA ECHCG Obs ([1]; 32 gae/ha): 80%
- Visual Weed Control (%) - 21 DAA CYPIR Obs ([2]; 8 gae/ha): 53%
- Visual Weed Control (%) - 22 DAA CYPIR Obs ([2]; 8 gae/ha): 37%
- Visual Weed Control (%) - 21 DAA CYPIR Obs ([2]; 16 gae/ha): 95%
- Visual Weed Control (%) - 21 DAA CYPES Obs ([3]; 8 ae/ha): 70%
- Visual Weed Control (%) - 21 DAA CYPES Obs ([3]; 8 gae/ha): 70%
- Visual Weed Control (%) - 14 DAA AVEFA Obs ([4]; Compound A Benzyl Ester 3.75 gae/ha): 10%
- Visual Weed Control (%) - 14 DAA AVEFA Obs ([4]; Compound A Benzyl Ester 7.5 gae/ha): 0%
- Visual Weed Control (%) - 14 DAA AVEFA Obs ([4]; Compound A Benzyl Ester 15 gae/ha): 10%

Compound: C[C@@H](Oc1ccc(Oc2nc3ccc(Cl)cc3o2)cc1)C(=O)N(C)c1ccccc1F [Metamifop, (2R)-2-[4-[(6-chloro-2-benzoxazolyl)oxy]phenoxy]-N-(2-fluorophenyl)-N-methylpropanamide]
- Visual Weed Control (%) - 22 DAA ECHCG Obs ([1]; 9.38 gai/ha): 0%
- Visual Weed Control (%) - 22 DAA ECHCG Obs ([1]; 18.75 gai/ha): 40%
- Visual Weed Control (%) - 22 DAA ECHCG Obs ([1]; 37.5 gai/ha): 70%

Compound: CCC/C(=N\OCC(C)Oc1ccc(Cl)cc1)C1=C(O)CC(C2CCCSC2)CC1=O (stereo not drawn) [Profoxydim, 2-[1-[[2-(4-chlorophenoxy)propoxy]imino]butyl]-3-hydroxy-5-(tetrahydro-2H-thiopyran-3-yl)-2-cyclohexen-1-one, reference compound]
- Visual Weed Control (%) - 22 DAA CYPIR Obs ([2]; 3.12 gai/ha): 0%
- Visual Weed Control (%) - 22 DAA CYPIR Obs ([2]; 6.25 gai/ha): 0%

Compound: CCOC(=O)[C@@H](C)Oc1ccc(Oc2cnc3cc(Cl)ccc3n2)cc1 [Quizalofop-p-ethyl, ethyl(2R)-2-[4-[(6-chloro-2-quinoxalinyl)oxy]phenoxy]propanoate, reference compound]
- Visual Weed Control (%) - 22 DAA ECHCG Obs ([1]; 3.75 gai/ha): 20%
- Visual Weed Control (%) - 22 DAA ECHCG Obs ([1]; 7.5 gai/ha): 30%
- Visual Weed Control (%) - 14 DAA AVEFA Obs ([4]; Quizalofop-p-ethyl 14.25 gae/ha): 40%

Compound: COc1c(Cl)ccc(-c2nc(C(=O)O)c(Cl)c(N)c2F)c1F [Compound A Acid, 4-amino-3-chloro-6-(4-chloro-2-fluoro-3-methoxyphenyl)-5-fluoropyridine-2-carboxylic acid]
- Visual Weed Control (%) - 14 DAA AVEFA Obs ([4]; Compound A Acid 3.75 gae/ha): 0%
- Visual Weed Control (%) - 14 DAA AVEFA Obs ([4]; Compound A Acid 7.5 gae/ha): 0%
- Visual Weed Control (%) - 14 DAA AVEFA Obs ([4]; Compound A Acid 15 gae/ha): 0%

Compound: CCCCOC(=O)[C@@H](C)Oc1ccc(Oc2ccc(C#N)cc2F)cc1 [Cyhalofop-butyl, butyl(2R)-2-[4-(4-cyano-2-fluorophenoxy)phenoxy]propanoate, reference compound]
- Visual Weed Control (%) - 21 DAA CYPIR Obs ([2]; 35 gai/ha): 0%
- Visual Weed Control (%) - 21 DAA CYPES Obs ([3]; 35 gai/ha): 0%

Source: patent publication US9232796B2, “Herbicidal compositions comprising 4-amino-3-chloro-5-fluoro-6-(4-chloro-2-fluoro-3-methoxyphenyl) pyridine-2-carboxylic acid or a derivative thereof and acetyl-CoA carboxylase (ACCase) inhibitors” (DOW AGROSCIENCES LLC, priority 2012, dated 2016)
